The values that follow come from patent publication US20120122935A1, “COMPOSITIONS AND METHODS FOR TREATING NECROTIZING ENTEROCOLITIS” (NATIONWIDE CHILDREN'S HOSPITAL, INC., priority 2007, published 2012).

Marks after values point to notes of the source that are not given here.

For data set [1] the following is noted: doses of 500 mg/kg or more in animal preparations; cited from earlier work.
Data set [2] has as its system Human fetal intestinal epithelial cells (FHS741NT). Put plainly: in vitro model of immature intestinal wound restitution (scrape wound plus LPS). The format is cell-based. The settings on record: 50 mg/ml nicotinamide after wounding and LPS administration, FIG. 14. The procedure:
We have established cell culture conditions for neonatal human intestinal epithelial cells (IEC), which we have developed as a platform for investigating cellular responses and identifying potential protection strategies. Human fetal intestinal epithelial cells (FHS741NT), passage seven or less, were seeded (40,000 cells/ml) in poly-1-lysine coated 8-chamber slides (Labtek II; Nunc, Rochester, N.Y.) in media (DMEM containing 10% FBS, L-glutamine (2 mM), EGF (30 ng/ml), and insulin (10 μg/ml)) and allowed to reach confluence. A wound was created in the cell monolayer using a specific cell scraper device attached to a microscope. The microscope stage controls allow the creation of a reproducible straight wound in each slide chamber (width 500 μm). After wounding, media was replaced with media (DMEM with 10% FBS, L-glutamine (2 mM)) containing the appropriate treatment compound. […]
Digital images of wounds were captured using a 10× objective on an inverted microscope (Olympus, Melville, N.Y.) with an attached digital camera (Diagnostic Instruments, Sterling Heights, Mich.). […] For each subsequent image, the AOI was placed over the position of the original wound and the area occupied by cells was measured. […] Results were expressed as mean % closure where % closure=area of wound occupied by cells/area of original wound. […]

A further data set deals with newborn rat model of NEC. The experiment in a line: newborn rat model of NEC (formula feeding, hypoxia, hypothermia, LPS). The format is in vivo. The settings on record: for Percent of Pups with NEC (any grade) / Percent of Pups with NEC Grade >2: one oral dose each day, n=8; for overall survival of pups exposed to the rat NEC model: nicotinamide treated vs control pups, FIG. 8. An excerpt: We have established valuable preclinical animal models that mimic intestinal injury in NEC. (Caplan M S, Hedlund E, Adler L, et al. Role of asphyxia and feeding in a neonatal rat model of necrotizing enterocolitis. Pediatr Pathol. November-December 1994; 14(6):1017-1028.) The model involves exposing neonatal rat pups to hypoxia, hypothermia, and formula feeding, leading to physiological stress and intestinal injury that pathologically is very similar to NEC in infants. Pups are delivered by cesarean section at E20 from timed pregnant dams. Pups are fed every 3 h with one skipped feed at 4 am (7 times/day) by oral gavage with 100 ul of a hypertonic formula (Similac and Esbilac). At 8 h post-delivery, pups are treated with 2 mg/kg LPS orally with feeding. Beginning on DOL 1, pups are fed every 3 h and subjected to hypoxic (2 min in 100% nitrogen) and hypothermal (10 min at 4° C.) stress twice daily immediately after feeds. Pups are sacrificed at DOL 4, or when discomfort warrants. Upon sacrifice, the distal ileum is collected in two sections. One section is immediately fixed in 10% neutral buffered formalin, and the other is snap-frozen in liquid nitrogen. Tissues are fixed for 48 h before histological processing and embedding in paraffin.
Each photomicrograph represents a different severity grading score of intestinal injury in this model as follows: (A)=Grade 0 or normal, (B)=Grade 1 or minimal intestinal damage, (C)=Grade 2 or minimal/modest intestinal damage, (D)=Grade 3 or moderate intestinal injury, (E) Grade 4 or severe intestinal injury. This system is based on the previously published intestinal injury grading system for the newborn rat intestinal model of NEC induced by formula feeding-hypoxia-hypothermia.

As for `NC(=O)c1cccnc1` [Nicotinamide, nicotinamide], the reported toxicities entry in data set [1] is “little or no reported toxicities”. Also, the figures for the “wound healing (epithelial restitution)” value in data set [2] and in data set [2] (listed as nicotinamide) were “improves wound healing” and “improved wound healing”, respectively. The “Percent of Pups with NEC (any grade)” value was found to be 12.5%* in the data set on newborn rat model of NEC (50 mg/kg nicotinamide) and 0%* in the data set on newborn rat model of NEC (500 mg/kg nicotinamide). Further, the “Percent of Pups with NEC Grade >2” value in the data set on newborn rat model of NEC (50 mg/kg nicotinamide) is 12.5%; in the data set with newborn rat model of NEC (500 mg/kg nicotinamide), 0%. Further, the figures for the “overall survival of pups exposed to the rat NEC model” value in the data set on newborn rat model of NEC and with newborn rat model of NEC (listed as nicotinamide) were “improved overall survival” and “improves survival”, respectively. The “evidence of NEC Grade 2 or greater” value in the data set with newborn rat model of NEC (one oral dose daily at 500 mg/kg) is recorded as “no evidence of NEC Grade 2 or greater”. Besides, the “protection against development of NEC / intestinal injury” value in the data set on newborn rat model of NEC (one oral dose of 50 or 500 mg/kg each day) is reported as “strikingly protective against the development of any NEC”.
